Test results as given in ChEMBL document CHEMBL3393055, “6,6-Fused heterocyclic ureas as highly potent TRPV1 antagonists” (Bioorg Med Chem Lett, 2015).

How the values were obtained:
[1] = target: T1, Transient receptor potential cation channel subfamily V member 1 (Homo sapiens, UniProt Q8NER1); assay: Antagonist activity at human TRPV1 assessed as inhibition of capsaicin-induced effect by FLIPR assay
[2] = target: T1, Transient receptor potential cation channel subfamily V member 1; assay: Antagonist activity at human TRPV1 assessed as inhibition of capsaicin-induced effect at 1 uM by FLIPR assay
[3] = target: T1, Transient receptor potential cation channel subfamily V member 1; assay: Antagonist activity at human TRPV1 assessed as inhibition of NADA-induced effect at 1 uM by FLIPR assay
[4] = target: T1, Transient receptor potential cation channel subfamily V member 1; assay: Antagonist activity at human TRPV1 assessed as inhibition of 45 degC heat-induced effect at 1 uM by FLIPR assay
Mus musculus [5] = assay: Analgesic activity in formalin-induced mouse pain model at 10 mg/kg, po; type: functional
[6] = target: T1, Transient receptor potential cation channel subfamily V member 1; assay: Antagonist activity at human TRPV1 assessed as inhibition of pH-induced effect at 1 uM by FLIPR assay
Mus musculus [7] = assay: Analgesic activity in formalin-induced mouse pain model at 0.3 mg/kg, po; type: functional

T1 sequence (Q8NER1 whole entry): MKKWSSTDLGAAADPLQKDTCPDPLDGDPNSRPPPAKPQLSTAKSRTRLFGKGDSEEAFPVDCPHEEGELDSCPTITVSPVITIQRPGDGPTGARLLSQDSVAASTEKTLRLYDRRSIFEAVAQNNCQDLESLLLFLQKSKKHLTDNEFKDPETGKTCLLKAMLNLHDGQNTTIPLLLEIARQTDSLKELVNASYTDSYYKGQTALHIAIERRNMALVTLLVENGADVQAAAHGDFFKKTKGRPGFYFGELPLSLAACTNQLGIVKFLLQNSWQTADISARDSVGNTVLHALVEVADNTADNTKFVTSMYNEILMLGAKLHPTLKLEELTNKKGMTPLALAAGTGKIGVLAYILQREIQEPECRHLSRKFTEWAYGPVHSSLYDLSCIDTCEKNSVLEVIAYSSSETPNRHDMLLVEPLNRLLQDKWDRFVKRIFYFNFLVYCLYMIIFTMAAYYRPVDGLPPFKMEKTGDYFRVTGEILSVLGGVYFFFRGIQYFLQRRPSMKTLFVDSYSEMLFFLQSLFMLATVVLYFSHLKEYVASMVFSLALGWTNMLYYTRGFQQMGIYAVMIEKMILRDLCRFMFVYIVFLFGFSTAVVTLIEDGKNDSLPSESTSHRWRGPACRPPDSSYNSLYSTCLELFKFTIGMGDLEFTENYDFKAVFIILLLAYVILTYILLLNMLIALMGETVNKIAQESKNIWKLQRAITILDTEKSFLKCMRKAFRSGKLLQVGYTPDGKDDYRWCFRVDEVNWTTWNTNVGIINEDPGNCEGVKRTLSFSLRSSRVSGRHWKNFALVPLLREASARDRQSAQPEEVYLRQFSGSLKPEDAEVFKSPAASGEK

SMILES | Ki ([1]; read-out: Ki) | other results
CC1CCN(c2nc(C(F)(F)F)ccc2CNC(=O)Nc2cccc3nccnc23)CC1 | 48.1 nM | –
O=C(NCc1ccc(C(F)(F)F)cc1)Nc1cccc2cnccc12 | 18.3 nM | –
CC1CCN(c2nc(C(F)(F)F)ccc2CNC(=O)Nc2cnc3ccccc3c2)CC1 | 9.5 nM | –
CC1CCN(c2nc(C(F)(F)F)ccc2CNC(=O)Nc2cccc3cccnc23)CC1 | 91.6 nM | –
CC1CCN(c2nc(C(F)(F)F)ccc2CNC(=O)Nc2cncc3ccccc23)CC1 | 1.8 nM | –
CC1CCN(c2nc(C(F)(F)F)ccc2CNC(=O)Nc2cccc3ncccc23)CC1 | 0.7 nM | –
CC1CCN(c2nc(C(F)(F)F)ccc2CNC(=O)Nc2ccc3ncccc3c2)CC1 | – | inhibition [2]: 40%
CC1CCN(c2nc(C(F)(F)F)ccc2CNC(=O)Nc2nccc3cccnc23)CC1 | – | Ki [1]: Not Active
CC1CCN(c2nc(C(F)(F)F)ccc2CNC(=O)Nc2ccc3ncncc3c2)CC1 | – | Ki [1]: Agonist
CC1CCN(c2nc(C(F)(F)F)ccc2CNC(=O)Nc2cc3ccccc3cn2)CC1 | – | inhibition [2]: 10%
CC(C)(C)c1ccc(CNC(=O)Nc2cccc3cnccc23)cc1 | 13.8 nM | –
CC1CCN(c2nc(C(F)(F)F)ccc2CNC(=O)Nc2ccc3ccccc3n2)CC1 | – | Ki [1]: Not Active
CC1CCN(c2nc(C(F)(F)F)ccc2CNC(=O)Nc2cccc3cnccc23)CC1 | 0.2 nM | Ki [3]: 0.02 nM; IC50 [4]: 0.55 nM; MPE (Mus musculus [5]): 73%; IC50 [6]: Not Active; MPE (Mus musculus [7]): 18%
CC1CCN(c2nc(C(F)(F)F)ccc2CNC(=O)Nc2ccnc3ccccc23)CC1 | – | Ki [1]: Agonist
CC1CCN(c2nc(C(F)(F)F)ccc2CNC(=O)Nc2cccc3ccncc23)CC1 | 0.4 nM | –
CC1CCN(c2nc(C(F)(F)F)ccc2CNC(=O)Nc2nccc3ccccc23)CC1 | – | Ki [1]: Not Active

More lines, main results first:

Ki ([1]; read-out: Ki) | SMILES | other results
7.1 nM | CC1CCN(c2nc(C(F)(F)F)ccc2CNC(=O)Nc2ccc3cccnc3c2)CC1 | –
8.4 nM | CC1CCN(c2nc(C(F)(F)F)ccc2CNC(=O)Nc2ccc3ccncc3c2)CC1 | –
8.9 nM | CC1CCN(c2nc(C(F)(F)F)ccc2CNC(=O)Nc2ccc3cnncc3c2)CC1 | –
7.2 nM | CC1CCN(c2nc(C(F)(F)F)ccc2CNC(=O)Nc2ccc3cnccc3c2)CC1 | –
7.8 nM | CC1CCN(c2nc(C(F)(F)F)ccc2CNC(=O)Nc2ccc3cncnc3c2)CC1 | –
